# Measured values from publication PMC4975955 (Journal of molecular biology, 2016).
# Experiments:
# TmRibUΔCt = TmRibUΔCt (Thermotoga maritima, UniProt Q9X1G6); assay: X-ray crystallography, […] Å; format: binding; conditions: co-purified substrate; extracellular pocket of TM4-6 and Loop1-2
# TmRibU = TmRibU (Thermotoga maritima, UniProt Q9X1G6, N123A); assay: thermal melting by analytical SEC peak height; format: binding; conditions: NG detergent; difference of mutant to wild-type complex, no apo reference
# TmRibU, sequence (Q9X1G6 whole entry N123A): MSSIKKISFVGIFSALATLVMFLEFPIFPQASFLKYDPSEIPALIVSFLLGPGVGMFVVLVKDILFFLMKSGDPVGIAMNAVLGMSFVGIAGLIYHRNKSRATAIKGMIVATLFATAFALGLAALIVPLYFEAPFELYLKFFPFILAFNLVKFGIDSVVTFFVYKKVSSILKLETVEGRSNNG
# TmRibUΔCt, sequence (Q9X1G6 1-173, stated change not applied): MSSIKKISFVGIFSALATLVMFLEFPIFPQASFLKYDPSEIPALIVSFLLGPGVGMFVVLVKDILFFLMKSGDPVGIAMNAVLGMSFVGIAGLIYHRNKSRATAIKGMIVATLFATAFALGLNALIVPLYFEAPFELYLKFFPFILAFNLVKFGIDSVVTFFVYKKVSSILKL
compound,measurement,setting,value
Cc1cc2nc3c(=O)[nH]c(=O)nc-3n(C[C@H](O)[C@H](O)[C@H](O)CO)c2cc1C [riboflavin],"X-ray crystallography, 2.6 Å (also 3.2 and 3.4 Å)",TmRibUΔCt,we determined the crystal structure of riboflavin-bound TmRibU
same,decrease of Tm of riboflavin complex vs WT,TmRibU,~ 23 °C
